# Literature values, collected in patent US12324861B2, “Beaded nonwoven membrane as a drug delivery system” (CEBIOTEX, S.L., priority 2018, dated 2025).
# Experiments:
# [1] = nude mice
# [2] = systemic administration in patients
structure (smiles),measurement,setting,value
CCc1c2c(nc3ccc(OC(=O)N4CCC(N5CCCCC5)CC4)cc13)-c1cc3c(c(=O)n1C2)COC(=O)[C@]3(O)CC [Irinotecan],conversion to SN-38,[1],> 70%
same,conversion into the active derivative (SN-38),[2],less than 10%
